The source made the active and inactive calls. No cut-off for these calls is given here.
Columns and labels:
[1] = system: J774.A1; assay: Inhibition of LPS-induced NO release in mouse J774.A1 cells at 12.5 to 50 uM when treated with compound and LPS simultaneously measured after 24 hrs by Griess reagent based assay relative to control; type: functional, cell-based; settings: dose 12.5-50 µM
[2] = system: J774.A1; assay: Inhibition of iNOS expression in LPS-stimulated mouse J774.A1 cells at 12.5 to 50 uM measured after […] by flow cytometry analysis relative to control; type: functional, cell-based; settings: dose 12.5-50 µM
[3] = system: J774.A1; assay: Cytotoxicity against mouse J774.A1 cells assessed as antiproliferative activity at 12.5 to 50 uM incubated for 24 hrs by MTT assay relative to control; type: cell-based; settings: j774.a1, 24 h, dose 12.5-50 µM
[4] = system: J774.A1; assay: Cytotoxicity against mouse J774.A1 cells assessed as antiproliferative activity at 200 uM incubated for 24 hrs by MTT assay relative to control; type: cell-based; settings: j774.a1, 24 h
[5] = system: J774.A1; assay: Inhibition of LPS-induced NO release in mouse J774.A1 cells at 5 uM when treated with compound and LPS simultaneously measured after 24 hrs by Griess reagent based assay relative to control; type: functional; parameters: scale not given: the % may be the effect or the level left

Row | SMILES | Activity [1] | Activity [2] | Activity [3] | Activity [4] [%] | Activity [5] [%]
1 | Cc1cc2c(cc1O)[C@@]13CCC(=O)C(C)(C)[C@@H]1C[C@@H]2OC3 | Active | Active | Non-Toxic |  | 
2 | CC(C)c1cc2ccc3c(c2c(O)c1O)C=CC(=O)C3(C)C | Active | Active | Non-Toxic |  | 
3 | Cc1cc2c(cc1O)[C@@]13CCCC(C)(C)[C@@H]1[C@H](OC3)[C@@H]2O |  |  | Toxic |  | 
4 | CC1(C)CCC[C@@]23CO[C@@H](C[C@@H]12)c1cc(O)c(O)cc13 |  |  | Toxic |  | 
5 | Sc1ncnc2nc[nH]c12 [MERCAPTOPURINE ANHYDROUS] |  |  |  | 27.86 | 
6 | COC(=O)[C@@H](N)CCCNC(=N)N[N+](=O)[O-].Cl |  |  |  |  | 57
7 | CC1=C[C@@]2(O)CC[C@H]3C(C)(C)CCC[C@]3(CO)C2=CC1=O |  |  | Toxic |  | 
8 | Cc1cc2c(cc1O)C[C@]1(O)CCCC(C)(C)[C@@H]1CC2 | Active | Active | Non-Toxic |  | 
9 | CC(CO)C1=C(O)C(=O)c2c(ccc3c2[C@H](O)CCC3(C)C)C1=O (stereo not given in full) | Active | Active | Non-Toxic |  | 
10 | CC1=C[C@]2(O)CC[C@H]3C(C)(C)CCC[C@@]3(O)C2=CC1=O | Active | Active | Non-Toxic |  | 

Source: ChEMBL document CHEMBL5033989, “Nor-abietane Diterpenoids from Perovskia abrotanoides Roots with Anti-inflammatory Potential” (J Nat Prod, 2021)
